ChEMBL document CHEMBL6134858, “Structure-Based Discovery Targeting GSK-3α Reveals Potent Nanomolar Selective 4-Phenyl-1H-benzofuro[3,2-b]pyrazolo[4,3-e]pyridine Inhibitor with Promising Glioblastoma and CNS-Active Potential in Cellular Models” (J Med Chem, 2025)
pIC50: −log10 of the molar value. Each block holds one compound with its values, some of them ahead of it. Activity calls are given as the source filed them. The calls are words filed in the database; no cut-off is given here.

Tests used:
U-251 [1] = test: cells; details: Homo sapiens, U-251, 24 h
Description: Antiproliferative activity against human U-251MG cells assessed as reduction in cell viability incubated for 24 hrs by PrestoBlue cell viability assay

T98G [2] = test: Antiproliferative activity against human T98G cells assessed as reduction in cell viability incubated for 24 to 72 hrs by PrestoBlue cell viability assay; type: functional, cell-based; details: dose 0.3-300 µM, time 24-72 hrs
T98G [3] = test: Antiproliferative activity against human T98G cells assessed as reduction in cell viability incubated for 24 hrs by PrestoBlue cell viability assay
U-87 MG [4] = test: Antiproliferative activity against human U-87 MG cells assessed as reduction in cell viability incubated for 72 hrs by PrestoBlue cell viability assay
T98G [5] = test: Antiproliferative activity against human T98G cells assessed as reduction in cell viability incubated for 48 hrs by PrestoBlue cell viability assay
U-87 MG [6] = test: Antiproliferative activity against human U-87 MG cells assessed as reduction in cell viability incubated for 24 hrs by PrestoBlue cell viability assay
U-251 [7] = test: cells; details: Homo sapiens, U-251, 72 h
Description: Antiproliferative activity against human U-251MG cells assessed as reduction in cell viability incubated for 72 hrs by PrestoBlue cell viability assay

U-251 [8] = test: Antiproliferative activity against human U-251MG cells assessed as reduction in cell viability incubated for 24 to 72 hrs by PrestoBlue cell viability assay; type: functional, cell-based; details: dose 0.3-300 µM, time 24-72 hrs
U-251 [9] = test: cells; details: Homo sapiens, U-251, 48 h
Description: Antiproliferative activity against human U-251MG cells assessed as reduction in cell viability incubated for 48 hrs by PrestoBlue cell viability assay

U-87 MG [10] = test: Antiproliferative activity against human U-87 MG cells assessed as reduction in cell viability incubated for 48 hrs by PrestoBlue cell viability assay
T98G [11] = test: Antiproliferative activity against human T98G cells assessed as reduction in cell viability incubated for 72 hrs by PrestoBlue cell viability assay
U-87 MG [12] = test: Antiproliferative activity against human U-87 MG cells assessed as reduction in cell viability incubated for 24 to 72 hrs by PrestoBlue cell viability assay; type: functional, cell-based; details: U-87MG ATCC, time 24-72 hrs
[13] = biological target: RAC-alpha serine/threonine-protein kinase (Homo sapiens) (UniProt P31749); test: Inhibition of PKBalpha (unknown origin) assessed as residual activity at 10 uM relative to control
T98G [14] = test: Antiproliferative activity against human T98G cells assessed as reduction in cell viability at IC50 concentrations incubated for 72 hrs by PrestoBlue cell viability assay relative to control; type: functional
U-87 MG [15] = test: Induction of cell cycle arrest in human U-87 MG cells assessed as accumulation of cell at S phase at IC50 concentration incubated for 72 hrs by propidium iodide/RNase staining based flow cytometry relative to control; type: functional, U-87MG ATCC
Homo sapiens [16] = species on record: Homo sapiens; test: Inhibition of PKA (unknown origin) assessed as residual activity at 10 uM relative to control
[17] = biological target: Protein kinase C alpha type (Homo sapiens) (UniProt P17252); test: Inhibition of PKCalpha (unknown origin) assessed as residual activity at 10 uM relative to control
[18] = Metabolic stability in human liver microsomes assessed as intrinsic clearance at 10 uM incubated up to 60 mins by HPLC-MS analysis; type: ADME, Microsome; details: 1 h
[19] = Inhibition of PKA (unknown origin); design: species or system Homo sapiens
[20] = biological target: Mitogen-activated protein kinase 1 (Homo sapiens) (UniProt P28482); test: Inhibition of ERK2 (unknown origin) assessed as residual activity at 10 uM relative to control
[21] = biological target: Cyclin-dependent kinase 9 (Homo sapiens) (UniProt P50750); test: Inhibition of CDK9 (unknown origin) assessed as residual activity at 10 uM relative to control
U-251 [22] = test: Induction of cell cycle arrest in human U-251MG cells assessed as accumulation of cell at S phase at IC50 concentration incubated for 72 hrs by propidium iodide/RNase staining based flow cytometry relative to control; type: functional
[23] = Metabolic stability in human liver microsomes assessed as half life at 10 uM incubated up to 60 mins by HPLC-MS analysis; type: ADME, Microsome
Homo sapiens [24] = species on record: Homo sapiens; test: Inhibition of PKA (unknown origin) at 10 uM
[25] = biological target: RAC-beta serine/threonine-protein kinase (Homo sapiens) (UniProt P31751); test: Inhibition of PKBbeta (unknown origin) assessed as residual activity at 10 uM relative to control
T98G [26] = test: Induction of cell cycle arrest in human T98G cells assessed as accumulation of cell at S phase at IC50 concentration incubated for 72 hrs by propidium iodide/RNase staining based flow cytometry relative to control; type: functional
[27] = biological target: Cyclin-dependent kinase 2 (Homo sapiens) (UniProt P24941); test: Inhibition of CDK2 (unknown origin) assessed as residual activity at 10 uM relative to control
[28] = biological target: Protein kinase C gamma type (Homo sapiens) (UniProt P05129); test: Inhibition of PKCgamma (unknown origin) assessed as residual activity at 10 uM relative to control
[29] = biological target: Cyclin-dependent kinase 5 (Homo sapiens) (UniProt Q00535); test: Inhibition of CDK5 (unknown origin) assessed as residual activity at 10 uM relative to control
[30] = Cytotoxicity against human Astrocyte at 10 to 100 uM incubated for 72 hrs by PrestoBlue cell viability assay; type: toxicity, cell-based; details: dose 10-100 µM
[31] = Cytotoxicity against human Astrocyte at 100 uM incubated for 72 hrs by PrestoBlue cell viability assay; type: toxicity, cell-based
U-87 MG [32] = test: Induction of cell cycle arrest in human U-87 MG cells assessed as accumulation of cell at G1 phase at IC50 concentration incubated for 72 hrs by propidium iodide/RNase staining based flow cytometry (reference value: 55.0 %); type: functional, U-87MG ATCC
T98G [33] = test: Induction of cell cycle arrest in human T98G cells assessed as accumulation of cell at G1 phase at IC50 concentration incubated for 72 hrs by propidium iodide/RNase staining based flow cytometry (reference value: 73.3 %); type: functional
[34] = biological target: Mitogen-activated protein kinase 3 (Homo sapiens) (UniProt P27361); test: Inhibition of ERK1 (unknown origin) assessed as residual activity at 10 uM relative to control
U-87 MG [35] = test: Induction of cell cycle arrest in human U-87 MG cells assessed as accumulation of cell at sub-G1 phase at IC50 concentration incubated for 72 hrs by propidium iodide/RNase staining based flow cytometry relative to control; type: functional; details: U-87MG ATCC
T98G [36] = test: Antiproliferative activity against human T98G cells assessed as reduction in cell viability at IC50 concentrations incubated for 72 hrs in presence of in BBB model (cocultured with HA, HBVP and HBMEC cells) by PrestoBlue cell viability assay relative to control; type: functional
U-251 [37] = test: Induction of cell cycle arrest in human U-251MG cells assessed as accumulation of cell at G1 phase at IC50 concentration incubated for 72 hrs by propidium iodide/RNase staining based flow cytometry (reference value: 74.8 %); type: functional

Sequence of RAC-beta serine/threonine-protein kinase (Homo sapiens) (P31751 whole entry): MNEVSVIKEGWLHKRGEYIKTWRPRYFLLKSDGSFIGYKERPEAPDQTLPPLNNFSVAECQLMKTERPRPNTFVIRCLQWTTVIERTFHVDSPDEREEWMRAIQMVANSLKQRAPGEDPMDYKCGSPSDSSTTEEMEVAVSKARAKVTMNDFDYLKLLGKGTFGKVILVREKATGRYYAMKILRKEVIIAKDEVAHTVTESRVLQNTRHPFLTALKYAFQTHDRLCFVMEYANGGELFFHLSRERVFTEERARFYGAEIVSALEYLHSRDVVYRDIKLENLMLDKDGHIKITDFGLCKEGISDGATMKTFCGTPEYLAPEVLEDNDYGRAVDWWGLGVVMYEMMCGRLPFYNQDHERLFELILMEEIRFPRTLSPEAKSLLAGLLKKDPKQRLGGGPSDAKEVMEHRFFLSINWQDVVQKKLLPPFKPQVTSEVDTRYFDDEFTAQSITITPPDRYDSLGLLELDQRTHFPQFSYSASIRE
Sequence of Cyclin-dependent kinase 9 (Homo sapiens) (P50750 whole entry): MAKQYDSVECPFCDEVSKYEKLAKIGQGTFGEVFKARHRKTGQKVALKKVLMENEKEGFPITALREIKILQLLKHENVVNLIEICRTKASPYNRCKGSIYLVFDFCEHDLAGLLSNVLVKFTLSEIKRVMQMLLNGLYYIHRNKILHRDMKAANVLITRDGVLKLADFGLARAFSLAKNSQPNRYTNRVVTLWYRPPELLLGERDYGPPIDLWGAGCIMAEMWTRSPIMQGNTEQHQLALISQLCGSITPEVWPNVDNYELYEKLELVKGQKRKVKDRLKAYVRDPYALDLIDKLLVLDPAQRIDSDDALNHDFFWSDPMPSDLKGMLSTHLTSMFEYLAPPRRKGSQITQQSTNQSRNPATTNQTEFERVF
Sequence of Mitogen-activated protein kinase 3 (Homo sapiens) (P27361 whole entry): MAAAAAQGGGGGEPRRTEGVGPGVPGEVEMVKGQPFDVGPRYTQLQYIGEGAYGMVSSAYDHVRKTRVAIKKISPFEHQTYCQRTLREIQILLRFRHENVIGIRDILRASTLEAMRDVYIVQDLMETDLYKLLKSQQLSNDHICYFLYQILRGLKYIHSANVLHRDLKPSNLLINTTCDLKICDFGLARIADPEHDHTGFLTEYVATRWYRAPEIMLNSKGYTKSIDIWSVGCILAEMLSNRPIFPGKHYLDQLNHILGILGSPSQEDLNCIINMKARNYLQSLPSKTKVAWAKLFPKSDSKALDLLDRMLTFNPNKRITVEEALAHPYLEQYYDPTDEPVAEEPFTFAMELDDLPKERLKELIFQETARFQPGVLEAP
Sequence of Cyclin-dependent kinase 5 (Homo sapiens) (Q00535 whole entry, looked up): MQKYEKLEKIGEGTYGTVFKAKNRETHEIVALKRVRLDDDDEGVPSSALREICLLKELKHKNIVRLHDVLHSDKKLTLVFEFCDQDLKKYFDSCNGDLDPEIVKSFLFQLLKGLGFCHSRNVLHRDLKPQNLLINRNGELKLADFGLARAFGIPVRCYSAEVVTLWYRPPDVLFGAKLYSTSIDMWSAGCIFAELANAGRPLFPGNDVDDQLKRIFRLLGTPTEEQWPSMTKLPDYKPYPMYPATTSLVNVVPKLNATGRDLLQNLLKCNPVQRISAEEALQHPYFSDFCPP
Sequence of RAC-alpha serine/threonine-protein kinase (Homo sapiens) (P31749 whole entry): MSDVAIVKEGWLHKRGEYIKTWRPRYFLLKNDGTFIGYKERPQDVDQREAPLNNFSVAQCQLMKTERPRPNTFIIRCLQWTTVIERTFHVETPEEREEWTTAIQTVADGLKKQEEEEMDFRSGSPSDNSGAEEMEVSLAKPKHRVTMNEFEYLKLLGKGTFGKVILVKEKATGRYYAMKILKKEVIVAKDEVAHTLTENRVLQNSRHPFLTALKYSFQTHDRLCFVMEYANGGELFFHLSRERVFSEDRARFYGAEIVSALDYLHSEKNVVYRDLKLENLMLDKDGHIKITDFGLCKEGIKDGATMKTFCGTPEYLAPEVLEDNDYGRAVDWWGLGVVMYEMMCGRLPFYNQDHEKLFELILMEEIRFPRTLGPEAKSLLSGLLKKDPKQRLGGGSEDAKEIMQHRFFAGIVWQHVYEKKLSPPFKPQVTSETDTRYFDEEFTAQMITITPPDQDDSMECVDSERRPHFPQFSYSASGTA
Sequence of Mitogen-activated protein kinase 1 (Homo sapiens) (P28482 whole entry): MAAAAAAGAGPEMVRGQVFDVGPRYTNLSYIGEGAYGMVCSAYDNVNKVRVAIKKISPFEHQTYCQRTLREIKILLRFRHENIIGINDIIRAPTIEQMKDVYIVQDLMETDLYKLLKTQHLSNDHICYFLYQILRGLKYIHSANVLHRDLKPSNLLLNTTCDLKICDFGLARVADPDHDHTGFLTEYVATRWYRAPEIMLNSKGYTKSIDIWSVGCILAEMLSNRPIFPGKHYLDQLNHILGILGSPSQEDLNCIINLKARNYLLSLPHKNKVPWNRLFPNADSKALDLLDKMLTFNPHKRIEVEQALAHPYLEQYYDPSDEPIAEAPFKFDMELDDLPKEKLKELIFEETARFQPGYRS

pIC50 (U-251 [1]): 4.29
pIC50 (U-87 MG [4]): 4.63
pIC50 (U-87 MG [6]): 4.43
pIC50 (U-251 [7]): 4.80
pIC50 (U-251 [9]): 4.60
pIC50 (U-87 MG [10]): 4.55
Structure (SMILES): Cn1sc(=O)n(Cc2ccccc2)c1=O
Activity (T98G [2]): Dose-dependent-effect
pIC50 (T98G [3]): 4.18
pIC50 (T98G [5]): 4.26
Activity (U-251 [8]): Dose-dependent-effect
pIC50 (T98G [11]): 4.38
Activity (U-87 MG [12]): Dose-dependent-effect

Activity [13]: > 50%
pIC50 (U-251 [1]): 4.82
Activity (Homo sapiens [16]): > 50%
pIC50 (U-87 MG [4]): 5.48
Activity [17]: > 50%
pIC50 (U-87 MG [6]): 4.82
CLH [18]: 5.6 µL/min/mg
pIC50 [19]: 6.73
Activity [20]: > 50%
Activity [21]: > 50%
half-life at 10 µM [23]: 1.68 h
inhibition (Homo sapiens [24]): Active
pIC50 (U-251 [7]): 5.21
Activity [25]: > 50%
Activity [27]: > 50%
Activity [28]: > 50%
Activity [29]: > 50%
pIC50 (U-251 [9]): 5.08
Activity [34]: > 50%
pIC50 (U-87 MG [10]): 5.33
Structure (SMILES): CC(C)c1ccc(-c2c3cn[nH]c3nc3c2oc2cc(O)ccc23)cc1
Activity (T98G [14]): 61%
Activity (T98G [2]): Dose-dependent-effect
Activity (U-87 MG [15]): 27.8%
pIC50 (T98G [3]): 4.92
pIC50 (T98G [5]): 5.09
Activity (U-251 [22]): 15.9%
Activity (T98G [26]): 22.3%
Activity (U-251 [8]): Dose-dependent-effect
Activity [30]: Non-toxic
Activity [31]: Non-toxic
Activity (U-87 MG [32]): 45.5%
Activity (T98G [33]): 65.8%
Activity (U-87 MG [35]): Active
pIC50 (T98G [11]): 5.21
Activity (U-87 MG [12]): Dose-dependent-effect
Activity (T98G [36]): 78%
Activity (U-251 [37]): 61.6%
